The assay deals with T1, CYP17A1 (17α-hydroxylase/17,20 lyase) (Homo sapiens, UniProt P05093).
T1 construct: human recombinant CYP17A1 co-expressed with POR in yeast microsomes; with human P450 oxidoreductase (POR)
T1 sequence (P05093 1-508): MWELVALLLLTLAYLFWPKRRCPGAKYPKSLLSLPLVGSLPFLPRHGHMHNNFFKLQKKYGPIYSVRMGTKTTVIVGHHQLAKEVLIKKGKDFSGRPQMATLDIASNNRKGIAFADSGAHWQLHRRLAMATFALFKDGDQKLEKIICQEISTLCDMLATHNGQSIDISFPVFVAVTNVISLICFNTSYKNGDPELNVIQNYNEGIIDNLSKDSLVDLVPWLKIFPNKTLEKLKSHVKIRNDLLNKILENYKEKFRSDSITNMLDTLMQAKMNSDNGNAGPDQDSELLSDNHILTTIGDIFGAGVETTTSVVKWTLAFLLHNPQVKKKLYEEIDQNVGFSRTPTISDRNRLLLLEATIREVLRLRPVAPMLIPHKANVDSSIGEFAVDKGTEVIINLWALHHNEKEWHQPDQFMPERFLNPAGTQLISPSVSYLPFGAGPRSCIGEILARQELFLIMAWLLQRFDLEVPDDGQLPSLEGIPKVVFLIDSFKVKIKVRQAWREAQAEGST
T1 sequence (P16435 2-677 partner): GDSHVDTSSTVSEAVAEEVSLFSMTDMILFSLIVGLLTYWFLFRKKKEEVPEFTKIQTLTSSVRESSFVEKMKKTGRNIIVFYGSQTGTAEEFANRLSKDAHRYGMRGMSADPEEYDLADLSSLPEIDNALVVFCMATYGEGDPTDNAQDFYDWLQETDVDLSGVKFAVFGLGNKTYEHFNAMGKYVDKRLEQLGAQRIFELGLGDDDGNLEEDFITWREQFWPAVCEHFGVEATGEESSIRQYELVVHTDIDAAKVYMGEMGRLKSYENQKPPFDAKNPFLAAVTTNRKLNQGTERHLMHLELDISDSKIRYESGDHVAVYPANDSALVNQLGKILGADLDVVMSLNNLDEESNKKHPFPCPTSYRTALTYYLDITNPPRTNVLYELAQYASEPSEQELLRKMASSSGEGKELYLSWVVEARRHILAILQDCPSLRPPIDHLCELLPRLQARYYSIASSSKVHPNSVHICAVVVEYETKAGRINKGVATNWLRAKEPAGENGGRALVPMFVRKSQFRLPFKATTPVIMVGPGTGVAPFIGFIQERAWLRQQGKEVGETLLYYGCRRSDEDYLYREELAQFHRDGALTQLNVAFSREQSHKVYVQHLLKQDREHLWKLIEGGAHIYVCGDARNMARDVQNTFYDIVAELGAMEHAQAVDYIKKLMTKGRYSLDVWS
Kind of assay: […]α-hydroxylase activity in yeast microsomes with radiolabelled steroid substrate, TLC readout, dose-response. The class given is biochemical.

Each structure is given as a SMILES string.

In turn, `c1cc(-c2cnn3cc(-c4ccc(OCCN5CCCCC5)cc4)cnc23)ccn1` [compound C] registered an IC50 of 9.6 nM.

By IC50 is commonly meant the midpoint of a concentration-inhibition curve. Read a high IC50 as lower potency.

The values are drawn from article PMC3266282, “Role of AMP-Activated Protein Kinase on Steroid Hormone Biosynthesis in Adrenal NCI-H295R Cells” (PLoS ONE, 2012).
